# From patent US9198957B2, “Treatment and prevention of bacterial vaginosis and Gardnerella vaginalis infections” (The Trustees of Columbia University in the City of New York, priority 2011, dated 2015)
# Columns and labels:
# [1] = reference (77); cited from earlier work
# Atopobium vaginae = conditions: reference (80); cited from earlier work
# [2] = test system: BV and G. vaginalis infections; conditions: cited from earlier work
# strain 49145 = test: MIC by E-test, strain 49145; format: cell-based, Gardnerella vaginalis; conditions: Mueller-Hinton agar with 5% sheep's blood, CLSI, repeated twice
# strain ARG3 = test: MIC by E-test, strain ARG3; format: cell-based, Gardnerella vaginalis; conditions: Mueller-Hinton agar with 5% sheep's blood, CLSI, repeated twice
# [3] = test system: biofilms made by G. vaginalis; conditions: Patterson et al. 2007; cited from earlier work
# [4] = test system: Gardnerella strain 49145 biofilm; test: Inhibition of newly forming biofilm (safranin stain, A462), strain 49145; format: cell-based, Gardnerella vaginalis; conditions: for reduction in biofilm formation (% biofilm density): FIG. 6
# Procedure: (§1) Biofilms of multiple Gardnerella strains [G. Vaginalis is the only species in the genus Gardnerella.] were grown, separately, in vitro in 96-well plates in BHI-supplemented media. Bovine pancreas DNase was added in varying concentrations to biofilm cultures at 0 hours (newly forming biofilms) and 24 hours (established biofilms.) The biofilms were washed, the supernatant was removed, and the biofilms were stained with safranin and solubilized in acetic acid. Biofilm absorbance at A462 nm was measured with a spectrophotometer, which method quantifies the amount of safranin stain taken up by the biofilm. DNase-treated and untreated biofilms were also grown in chamber slides and DAPI staining was performed for fluorescence microscopy.
# (§2) Biofilms were grown in the presence of varying concentrations of antibiotic and DNase administered at t=0 hours to test the effect of the agents on biofilm formation. To test the effects on the degradation of established biofilms, the agents were administered at t=24 hours.
# All cultures and biofilms were grown in ‘biofilm media’ (BHI media+0.3% starch, 0.3% glucose, 0.5 mcg/mL amphotericin B) at 37° C. and 5% CO2. Liquid cultures of strains 49145 or ARG3 were grown overnight to a standardized OD600 of 0.6 and diluted 1:10 prior to aliquoting for biofilms. Cultures were aliquoted into 96-well plates as follows:
# (§3) 180 μL of bacteria and 20 μL of DNase at varying concentrations (1:10 dilutions of 1 mg/mL to final concentrations in the wells as labeled in the figures) or PBS as a control (total volume always 200 μL) were added together at t=0 hours and incubated for 24 hours. They were then washed, stained with safranin and solubilized with ascetic acid, with measurement of absorbance at 462 nm to quantify density of stained material.
# 160 μL of culture, 20 µL of antibiotic at varying concentrations (1:10 and 2-fold dilutions to final concentrations in wells as labeled in the figures), and 20 μL of DNase at varying concentrations (1:10 dilutions as above) with 20-40 μL of PBS used when necessary for controls (wells without antibiotic, DNase, or both) were added to wells at t=0 hours and incubated for 24 hours as above. Biofilms were quantified as above.
# G. Vaginalis ARG37 = test: Murine model of vaginal colonization; format: in vivo; conditions: co-inoculation with DNase, mice, strain ARG37; FIG. 16
# Source text: The same strategy works in the complex environment of the lower genital tract in murine models of vaginal colonization. Models for vaginal colonization of mice with G. Vaginalis and group B Streptococcus have been developed. […] FIG. 16. These models will important in prophylactic use in at-risk populations including, but not limited to, pregnant women, those individuals infected with sexually transmitted diseases including HIV, and those individuals with recurrent BV.
# [5] = test system: Gardnerella strain ARG3 biofilm; test: Inhibition of newly forming biofilm (safranin stain), strain ARG3; format: cell-based, Gardnerella vaginalis; conditions: DNase 10 μg/ml and 100 μg/ml, time=0 hours; FIG. 2
# Procedure: as §1
# Biofilms were grown in the presence of varying concentrations of antibiotic and DNase administered at t=0 hours to test the effect of the agents on biofilm formation. […]
# as §3, with “material. […]” for “material.”
# [6] = test system: group B Streptococcus biofilm; test: Inhibition of group B Streptococcus biofilm formation (A462); format: cell-based; conditions: DNase 100 μg/ml, t=0 hours; FIG. 17
# Procedure: as §1, §3
# The results depicted in FIG. 17 show the dose-response inhibition of group B Streptococcus biofilm formation by DNase that was administered at t=0 hours as assessed by measuring the absorbance of light at 462 nm (A462).
# [7] = test system: established Gardnerella strain 49145 biofilms; test: Breakdown of established (24 h) biofilm, strain 49145; format: cell-based, Gardnerella vaginalis; conditions: DNase administered at t=24 hours; FIG. 3
# Procedure: as §1, §2
# (§4) All cultures and biofilms were grown in ‘biofilm media’ (BHI media+0.3% starch, 0.3% glucose, 0.5 mcg/mL amphotericin B) at 37° C. and 5% CO2. Liquid cultures of strains 49145 or ARG3 were grown overnight to a standardized OD600 of 0.6 and diluted 1:10 prior to aliquoting for biofilms. […]
# (§5) For quantification as above, antibiotic concentrations were chosen based on the MIC (⅛-4× MIC).
# [8] = test system: ATCC Gardnerella strain 49145 biofilms; test: Liberation of bacteria from biofilm into supernatant / bacterial killing (colony counts); format: cell-based, Gardnerella vaginalis
# Procedure: Further experiments were conducted to assess whether there is an improved effect on biofilm formation and breakdown by the combined administration of DNase and antibiotics against Gardnerella. The y axis plots the % of biofilm absorbance A462 for each condition. […] The minimum inhibitory concentration (MIC) for the antibiotics was measured by E-testing the relevant strains. Colony counts were performed on both the supernatant and the biofilm components of the culture, and a one-way ANOVA with Bonferroni post-tests were performed using Prism (Graphpad) where DNase was administered at time=24 hours.
# [9] = test system: established Gardnerella strain ARG3 biofilms; test: Breakdown of established (24 h) biofilm, strain ARG3; format: cell-based, Gardnerella vaginalis; conditions: DNase administered at t=24 hours; FIG. 4
# Procedure: as §1, §2, §4, §5
# Gardnerella biofilms = test: Fluorescence microscopy of DNase-treated biofilms; format: cell-based, Gardnerella vaginalis; conditions: DNase-treated vs untreated biofilms
molecule,measurement,setting,value
CCS(=O)(=O)CCn1c([N+](=O)[O-])cnc1C [Tinidazole],half-life,[1],12 to 14 h
CC1(C)S[C@@H]2[C@H](NC(=O)[C@H](N)c3ccccc3)C(=O)N2[C@H]1C(=O)O [ampicillin],Etest susceptibility concentration (range),Atopobium vaginae,<0.016 to 0.94 µg/mL
CC[C@H]1OC(=O)[C@H](C)[C@@H](O[C@H]2C[C@@](C)(OC)[C@@H](O)[C@H](C)O2)[C@H](C)[C@@H](O[C@@H]2O[C@H](C)C[C@H](N(C)C)[C@H]2O)[C@](C)(O)C[C@@H](C)CN(C)[C@H](C)[C@@H](O)[C@]1(C)O [azithromycin],Etest susceptibility concentration (range),Atopobium vaginae,<0.016 to 0.32 µg/mL
O=C(O)c1cn(C2CC2)c2cc(N3CCNCC3)c(F)cc2c1=O [ciprofloxacin],Etest susceptibility concentration (range),Atopobium vaginae,0.023 to 0.25 µg/mL
CC(=O)NC[C@H]1CN(c2ccc(N3CCOCC3)c(F)c2)C(=O)O1 [linezolid],Etest susceptibility concentration (range),Atopobium vaginae,0.016 to 0.125 µg/mL
Cc1ncc([N+](=O)[O-])n1CCO [metronidazole],cure rates (by Amsel criteria),"[2]; at four weeks, oral regimens for one week",approximately 80%
same,early rates of clinical cure,[2]; multiple divided-dose oral regimens for one week,> 90%
same,Minimum Inhibitory Concentration (MIC),strain 49145,4
same,Minimum Inhibitory Concentration (MIC),strain ARG3,4
same,half-life,[1],6 to 7 h
DNase,reduction in biofilm formation or breakdown,[3],no reduction in biofilm formation or breakdown
same,extent of biofilm formation (A462),"[4]; DNase 10 μg/ml and 100 μg/ml, administered at time=0 hours, FIG. 1",dramatic reduction
same,reduction in biofilm formation (% biofilm density),"[4]; DNase alone 1 μg/mL, t=0 hours",30%
same,reduction in biofilm formation (A462),"[4]; DNase alone 1 μg/mL, t=0 hours, FIG. 8 (C)",30%
same,reduction in biofilm formation (% biofilm density),"[4]; DNase alone 100 μg/mL, t=0 hours",75%
same,establishment of vaginal colonization,G. Vaginalis ARG37,inhibited the establishment of colonization
same,extent of biofilm formation (% biofilm density),[5],dramatic reduction
same,extent of biofilm formation (A462),[6],dramatic reduction
same,breakdown of established biofilms,[7],dose-dependent breakdown
same,bacterial killing in biofilm cultures,[8]; DNase alone,does not kill the bacteria
same,release of biofilm-embedded bacteria,"[8]; DNase, FIGS. 13-15",released into the supernatant
same,breakdown of established biofilms,[9],dose-dependent breakdown
same,biofilm matrix and overall density by fluorescence microscopy,Gardnerella biofilms,decrease in the biofilm matrix and in overall density
penicillin,Etest susceptibility concentration (range),Atopobium vaginae,0.008 to 0.25 µg/mL
